Test results as given in patent publication US11981677B2, “Further substituted triazolo quinoxaline derivatives” (Grünenthal GmbH, priority 2018, dated 2024).

Target: T1, Glucocorticoid Receptor (Homo sapiens, UniProt P04150)
T1 construct: expressed in transfected cells
T1 sequence (P04150 524-758 limits assumed): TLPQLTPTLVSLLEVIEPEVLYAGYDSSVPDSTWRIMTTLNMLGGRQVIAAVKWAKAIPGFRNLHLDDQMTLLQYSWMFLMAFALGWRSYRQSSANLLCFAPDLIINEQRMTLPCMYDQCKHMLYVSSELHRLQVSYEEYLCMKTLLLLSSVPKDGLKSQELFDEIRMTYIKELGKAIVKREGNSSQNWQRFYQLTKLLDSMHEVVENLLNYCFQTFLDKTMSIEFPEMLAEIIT
Test: Agonistic mode of action on the glucocorticoid receptor (CHO-Gal4/GR luciferase reporter cell line)
Assay type: cell-based
Conditions: CHO-Gal4/GR luciferase reporter cells; observed in the agonistic assay or the antagonistic assay (mode not given); read-out: IC50 or EC50 range
From the text: Potential selective glucocorticoid receptor modulators of this intervention can be tested for modulation of the activity of the glucocorticoid receptor using cell-based assays. These assays involve a Chinese hamster ovary (CHO) cell line which contains fragments of the glucocorticoid receptor as well as fusion proteins. The glucocorticoid receptor fragments used are capable of binding the ligand (e.g. beclomethasone) to identify molecules that compete for binding with glucocorticoid receptor ligands. In more detail, the glucocorticoid receptor ligand binding domain is fused to the DNA binding domain (DBD) of the transcriptionfactor GAL4 (GAL4 DBD-GR) and is stably integrated into a CHO cell line containing a GAL4-UAS-Luciferase reporter construct. […] After cell lysis the luminescence that is produced by luciferase after addition of the substrate is detected and EC50 or IC50 values can be calculated. Engagement of molecules which induce gene expression via glucocortocoid receptor binding to the DNA leads to expression of the luciferase gene under the control of the fusion protein GAL4 DBD-GR and therefore to a dose-dependent increase of the luminescence signal. Binding of molecules which repress beclomethasone-induced gene expression of the luciferase gene under the control of the fusion protein GAL4 DBD-GR leads to a dose-dependent reduction of the luminescence signal.
The reporter cell line CHO-Gal4/GR consisted of a chinese hamster ovary (CHO) cell line (Leibniz Institute DSMZ—German Collection of Microorganisms and Cell Cultures GmbH: ACC-110) containing a firefly luciferase gene under the control of the GR ligand binding domain fused to the DNA binding domain (DBD) of GAL4 (GAL4 DBD-GR) stably integrated into CHO cells. This cell line was established by stable transfection of CHO cells with a GAL4-UAS-Luciferase reporter construct. In a subsequent step the ligand binding domain of the GR cloned into pIRES2-EGFP-GAL4 containing the DNA binding domain of GAL4 from pFA-AT2 was transfected. This fusion construct activated firefly luciferase expression under the control of a multimerized GAL4 upstream activation sequence (UAS). The signal of the emitted luminescence was recorded by the FLIPR^TETRA. This allowed for specific detection of ligand-induced activation of the GR and therefore for the identification of compounds with agonistic properties. The GAL4/UAS reporter was premixed with a vector that constitutively expressed Renilla luciferase, which served as an internal positive control for transfection efficiency.
The complete culture medium for the assay was: • DMEM F-12 (1:1) MIXTURE (LONZA cat. No: BE04-687F/U1) 500 mL • 5 mL of 100 mM Sodium Pyruvate (LONZA cat. No: BE12-115E) • 25 mL of 7.5% Sodium Bicarbonate (LONZA cat. No BE17-613E) • 6.5 mL of 1 M Hepes (LONZA cat. No: BE17-737E) • 5 mL of 100× Penicillin/Streptomycin (LONZA cat. No DE17-602E) • 50 mL of Fetal Bovine Serum (Euroclone cat. No ECS 0180L) • 0.25 mL of 10 mg/mL Puromycin (InvivoGen cat.: ant-pr-1) • 0.5 mL of 100 mg/mL Zeocin (InvivoGen cat.: ant-zn-1)
Cryo-preserved CHO-Gal4/GR cells were suspended in complete medium and 5000 cells/25 μl/well were seeded into the wells of 384-well polystyrene assay plates (Thermo Scientific, cat. #4332) and cultured at 37° C., 5% CO2 and 95% humidity. After 24 hours growth medium was carefully removed and replaced by 30111 Opti-MEM (GIBCO, cat. #31985062) as assay buffer. To test the compounds an 8-point half-log compound dilution curve was generated in 100% DMSO starting from a 2 mM stock and compounds were then diluted 1:50 in Opti-MEM. 10111 of compounds were then added to the wells containing 30 μl Opti-MEM resulting in a final assay concentration range from 10 μM to 0.003 μM in 0.5% DMSO. Compounds were tested at 8 concentrations in quadruplicate data points. […] Finally, cells were lysed with 20 μl of Triton/Luciferin solution and the signal of the emitted luminescence was recorded at the FLIPR^TETRA for 2 minutes. […]

| IC50 or EC50 (antagonist or agonist mode, not stated per compound) | Structure (SMILES) |
| --- | --- |
| 100 to 1000 nM | CCc1nnc2n1-c1c(C)c(-c3cc(F)cc4c(C)c[nH]c34)cc(F)c1NC2(C)C [Example 316, 1-Ethyl-6-fluoro-8-(5-fluoro-3-methyl-1H-indol-7-yl)-4,4,9-trimethyl-5H-[1,2,4]triazolo[4,3-a]quinoxaline] |
| 100 to 1000 nM | CCc1nnc2n1-c1c(C)c(-c3cc(F)cc4c3ccn4S(C)(=O)=O)cc(F)c1NC2(C)C [Example 323, 1-Ethyl-6-fluoro-8-(6-fluoro-1-methylsulfonyl-1H-indol-4-yl)-4,4,9-trimethyl-5H-[1,2,4]triazolo[4,3-a]quinoxaline] |
| 100 to 1000 nM | Cc1c(-c2cccc3c2ccn3CC(F)F)cc(F)c2c1-n1c(C)nnc1C(C)(C)N2 [Example 326, 8-[1-(2,2-Difluoro-ethyl)-1H-indol-4-yl]-6-fluoro-1,4,4,9-tetramethyl-5H-[1,2,4]triazolo[4,3-a]quinoxaline] |
| 100 to 1000 nM | Cc1c(-c2cc(F)cc3c2cnn3S(C)(=O)=O)cc(F)c2c1-n1c(C)nnc1C(C)(C)N2 [Example 340, 6-Fluoro-8-(6-fluoro-1-methylsulfonyl-1H-indazol-4-yl)-1,4,4,9-tetramethyl-5H-[1,2,4]triazolo[4,3-a]quinoxaline] |
| 100 to 1000 nM | Cc1c(-c2cccc3c2ccn3S(=O)(=O)CF)cc(F)c2c1-n1c(C)nnc1C(C)(C)N2 [Example 349, 6-Fluoro-8-[1-(fluoro-methylsulfonyl)-1H-indol-4-yl]-1,4,4,9-tetramethyl-5H-[1,2,4]triazolo[4,3-a]quinoxaline] |
| < 100 nM | CCS(=O)(=O)n1ccc2c(-c3cc(F)c4c(c3C)-n3c(C)nnc3C(C)(C)N4)cccc21 [Example 350, 8-[1-(Ethylsulfonyl)-1H-indol-4-yl]-6-fluoro-1,4,4,9-tetramethyl-5H-[1,2,4]triazolo[4,3-a]quinoxaline] |
| 100 to 1000 nM | Cc1c(-c2cccc3c(C)n[nH]c23)cc(F)c2c1-n1c(C)nnc1C(C)(C)N2 [Example 352, 6-Fluoro-1,4,4,9-tetramethyl-8-(3-methyl-1H-indazol-7-yl)-5H-[1,2,4]triazolo[4,3-a]quinoxaline] |
| 100 to 1000 nM | CCc1nnc2n1-c1c(C)c(-c3cccc4c(C)c[nH]c34)cc(F)c1NC2(C)C [Example 355, 1-Ethyl-6-fluoro-4,4,9-trimethyl-8-(3-methyl-1H-indol-7-yl)-5H-[1,2,4]triazolo[4,3-a]quinoxaline] |
| 1000 to 15000 nM | Cc1c(-c2cccc3c2ccn3S(=O)(=O)C(C)C)cc(F)c2c1-n1c(C)nnc1C(C)(C)N2 [Example 366, 6-Fluoro-8-[1-(isopropylsulfonyl)-1H-indol-4-yl]-1,4,4,9-tetramethyl-5H-[1,2,4]triazolo[4,3-a]quinoxaline] |
| 100 to 1000 nM | Cc1c(-c2cccc3c2ccn3CCN(C)C)cc(F)c2c1-n1c(C)nnc1C(C)(C)N2 [Example 375, [2-[4-(6-Fluoro-1,4,4,9-tetramethyl-5H-[1,2,4]triazolo[4,3-a]quinoxalin-8-yl)-1H-indol-1-yl]-ethyl]-dimethyl-amine] |
| 1000 to 15000 nM | Cc1c(-c2cccc3c2cnn3S(C)(=O)=O)cc(F)c2c1-n1c(C)nnc1C(C)(C)N2 [Example 378, 6-Fluoro-1,4,4,9-tetramethyl-8-(1-methylsulfonyl-1H-indazol-4-yl)-5H-[1,2,4]triazolo[4,3-a]quinoxaline] |
| < 100 nM | Cc1c(-c2cccc3c2ccn3S(=O)(=O)C2CC2)cc(F)c2c1-n1c(C)nnc1C(C)(C)N2 [Example 391, 8-[1-(Cyclopropylsulfonyl)-1H-indol-4-yl]-6-fluoro-1,4,4,9-tetramethyl-5H-[1,2,4]triazolo[4,3-a]quinoxaline] |
